Laboratory results from US20210308120A1, “Use of Amitriptyline for Blocking Brain Hemichannels and Method for Potentiating its Effect in Vivo” (THERANEXUS, priority 2015, published 2021).
“Also recorded” adds a separate entry of the source.

Columns and labels:
[1] = system: SN-CCI rats (neuropathic pain, hyperalgesia); experiment: Randall & Selitto test in SN-CCI rats, chronic 14-day administration; assay type: in vivo, rat; details: 14 days; for Potentiation of amitriptyline anti-hyperalgesic effect: combined with amitriptyline 12 mg/kg, mefloquine or MFA 0.5 mg/kg i.p. twice a day
Source text: Data are the means±S.E.M. of n=8-14 rats.
Data are the means±S.E.M. of n=8-14 rats. *p<0.05, **p<0.01, ***p<0.001 as compared with “saline+saline” group at the same time, ≠p<0.05 as compared between amitriptyline groups, two-way ANOVA, Bonferroni test.
(§1) One week after their arrival, rats were anesthetized with sodium pentobarbital before exposing the common sciatic nerve. As described in Bennett's article, four chromic catgut (5-0) ligations were tied loosely proximally to the sciatic trifurcation (Bennett and Xie, 1988).
(§2) All behavioral assessments were conducted between 9 a.m. and 5 p.m. in a quiet room. An increasing pressure was applied to the right hind paw of SN-CCI (Sciatic Nerve-Chronic Constriction Injury) rat to evaluate hyperalgesia-like behavior (Viguier and al, 2013). Values correspond to the pressure threshold producing the paw withdrawal and then the vocalization of the rat.
Osmotic mini-pumps (Alzet, model 2ML2), delivering for the following 14 days amitriptyline or vehicle were subcutaneously implanted.
a) Rats were ligated on sciatic nerve and then tested with the Randall & Selitto test 14 days after surgery, to evaluate hyperalgesia quantified as pressure threshold. Neuropathic rats, characterized by a decrease of pressure threshold after surgery, were then treated during 14 days and tested by the Randall & Selitto test during this period.

[2] = system: neuropathic mice (cuff model, allodynia); experiment: Mechanical allodynia, von Frey test in sciatic nerve cuff model; assay type: in vivo, mouse; details: for Synergy with amitriptyline in vivo: combined with amitriptyline (FIGS. 7 and 11), 0.5 mg/kg
Method: Paw withdrawal thresholds of mice treated with either amitriptyline 6 mg/kg alone (AMIT 6) or amitriptyline 12 mg/kg alone (AMIT 12) are also shown (D). FIG. 10 (E) represents area under curve analysis.
Area under curve analysis are shown (B).
Neuropathic pain was induced to adult male C57BL/6J mice (Charles River, L'Arbresle, France) by cuffing the main branch of the right sciatic nerve (For detailed description and video illustration: Yalcin et al. 2014, J Vis Exp 89:e51608). Surgeries were performed under ketamine (68 mg/kg)/xylazine (10 mg/kg) intraperitoneal (i.p.) anesthesia (Centravet, Tadden, France). The common branch of the right sciatic nerve was exposed and a cuff of PE-20 polyethylene tubing (Harvard Apparatus, Les Ulis, France) of standardized length (2 mm) was unilaterally inserted around it (Cuff group). The shaved skin was closed using suture.
Injections were done once a day during the 17 first days of treatment, in the afternoon. As a single dose per day was ineffective, treatment was then done twice a day, morning and afternoon, from the 8 last days of treatment.
Mechanical allodynia was tested using von Frey hairs and results were expressed in grams (For detailed description and video illustration: Yalcin et al. 2014, J Vis Exp 89:e51608). Tests were done during the morning, starting at least 2 hours after lights on. Mice were placed in clear Plexiglas boxes (7 cm×9 cm×7 cm) on an elevated mesh screen. Calibrated von Frey filaments (Bioseb, Vitrolles, France) were applied to the plantar surface of each hindpaw until they just bent, in a series of ascending forces up to the mechanical threshold. Filaments were tested five times per paw and the paw withdrawal threshold was defined as the lower of two consecutive filaments for which three or more withdrawals out of the five trials were observed.
Mice were subjected to sciatic nerve cuffing and then tested with the von Frey test to evaluate allodynia quantified as pressure threshold.
Mice were subjected to sciatic nerve cuffing and then tested with the von Frey test to evaluate allodynia quantified as pressure threshold. Neuropathic mice, characterized by a decrease of pressure threshold after surgery, were then treated during 25 days and tested by the von Frey test during this period.

mice subjected to FST = experiment: Forced Swim Test (FST); assay type: in vivo, mouse; details: amitriptyline 12 mg/kg + mefloquine 1 mg/kg per os; 2nd 3-min period
Method: The FST is the most used rodent model for screening antidepressants (Porsolt et al, 1977). Mice were dropped individually in a glass cylinder (25 cm high, 9 cm diameter) filled with 10 cm 25° C. water. The experiment was recorded with a camcorder, placed in front of the glass cylinders. Video were scored at a later time by an experimenter blind to the treatments. The indices of depression-related behavior are the immobility time, the swimming time and the climbing time.
FST test evaluates the despair behavior which is commonly reversed by antidepressants. During FST, the swimming time of each mouse was measured on each 1-min period, on 1st and 2nd 3-min periods.

Cx43 hemichannels = biological target: T1, Cx43 hemichannels (Mus musculus, UniProt P23242); experiment: Hemichannel activity by ethidium bromide uptake in LPS-treated mouse cortical astrocyte cultures; assay type: cell-based; details: 24 hours; for HC activity (ethidium bromide uptake) after LPS-induced opening: LPS 1 μg/mL and mefloquine or MFA 10 μM; for Degree of Cx43 hemichannel inhibition, MFA compared with mefloquine: both 10 μM, LPS 1 μg/mL
T1 construct: Astrocyte cultures were prepared from cortex of rats and mice as previously described; endogenous in cells; host or cells: secondary cultures of mouse cortical astrocytes, LPS-treated
Method: Astrocyte cultures were prepared from cortex of rats and mice as previously described (Meme et al., 2006). Cells were seeded on polyornithine coated 35 mm dishes (5×10^5 cells/dish) or into 100-mm diameter plastic dishes at the density of 3×10^6 cells/dish. After 8-10 days, when cells grown into 35 mm in diameter plastic culture dishes have reached confluence, 1 μM of cytosine-arabinoside was added to the culture medium. In addition, when cells grown into 100 mm plastic culture dishes reached confluence, they were harvested with trypsin-EDTA. Then, cells were re-plated (2×10^5 cells per well), as secondary cultures, on glass coverslips placed inside 24-round-well plate. Finally, they were grown to confluence and cytosine-arabinoside was added. Medium was changed twice a week for all cells until the experiments were carried out. Hemichannel activity was evaluated in secondary cultures of cortical astrocytes by Ethidium Bromide (EtBr) uptake as already published (Orellana et al, 2011). 24 h before experiment, cells were pretreated or not with 1 μg/ml LPS known to open Cx43 HeC. The day of experiment, cells were first preincubated in HEPES buffer solution. Then, cells were exposed to 5 μM EtBr for 10 min at room temperature. Cells were then washed with the same buffer before fixation with 4% paraformaldehyde in PBS. Fixed cells were examined at 40× with a confocal laser-scanning microscope. Stacks of 10 consecutive confocal images taken at 0.49 μm intervals were acquired. For each experimental condition, 6 images were captured and then analyzed with Image J program (NIH software). LPS was added to mouse cortical astrocytic cultures during 24 hours to open Cx43 hemichannels and amitriptyline was also added during the same time to evaluate its action on hemichannel activity, quantified by cell uptake of ethidium bromide.

[3] = Pharmacokinetics of amitriptyline/mefloquine in plasma and brain of mice (LC-MS); assay type: in vivo, mouse
Method: Data are presented as mean±SEM.
Adult male C57BL/6J mice (Charles River, L'Arbresle, France) were used. Mice were kept in collective cages for habituation to the facility for one week before experimental testing with food and water ad libitum. Mice were maintained on a light/dark cycle of 12 hours with light onset at 8h00 and with a controlled temperature of 21° C.±1° C.
Injections were done twice.
On day 18th of treatment, mice received the morning injection and samplings were done 2 hours after the injection. Mice were anesthetized just before sampling (ketamine 68 mg/kg, xylazine 10 mg/kg) and blood was collected by intracardiac puncture (Vacuette tubes, with lithium/heparin gel). The mouse was then decapitated, and the brain extracted and fast frozen in dry ice.
Vacuette tubes with blood were centrifugated (3000 rpm, 20 min), plasma recovered and stored at −80° C. until shipping in dry ice.

[4] = system: SN-CCI rats (neuropathic pain, hyperalgesia); experiment: Randall & Selitto test in SN-CCI rats, repeated administration every 150 minutes; assay type: in vivo, rat; details: mefloquine 1 mg/kg with amitriptyline i.p. every 150 min; at 90 and 240 min
Method: as §1, §2

[5] = cited from earlier work
[6] = amitriptyline 12 mg/kg s.c. osmotic pump, mefloquine 0.5 mg/kg i.p. twice a day, vs saline

T1 sequence (P23242 whole entry): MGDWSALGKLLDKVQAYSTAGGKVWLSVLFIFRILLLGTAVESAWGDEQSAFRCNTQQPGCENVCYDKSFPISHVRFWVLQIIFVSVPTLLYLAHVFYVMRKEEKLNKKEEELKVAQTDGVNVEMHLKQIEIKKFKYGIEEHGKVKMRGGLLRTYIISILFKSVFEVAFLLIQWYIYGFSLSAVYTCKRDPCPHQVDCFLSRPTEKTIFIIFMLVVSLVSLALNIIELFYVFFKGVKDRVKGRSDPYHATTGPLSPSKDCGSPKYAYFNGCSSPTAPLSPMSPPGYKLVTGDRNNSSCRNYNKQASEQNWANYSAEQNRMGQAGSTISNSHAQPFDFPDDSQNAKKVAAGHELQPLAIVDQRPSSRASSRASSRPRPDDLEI

Compound: O[C@H](c1cc(C(F)(F)F)nc2c(C(F)(F)F)cccc12)[C@@H]1CCCCN1 (relative stereo) [mefloquine, (R*, S*)-(±)-α-2-piperidinyl-2,8-bis (trifluoromethyl)-4-quinolinemethanol]
- Paw withdrawal threshold (pressure) [1, 6]: did not present significant effect on both responses
- Vocalization threshold (pressure) [1, 6]: did not present significant effect on both responses
- Potentiation of amitriptyline anti-hyperalgesic effect [1]: significantly potentiated amitriptyline hyperalgesic profile from day 6 to day 14; also recorded: significantly potentiated amitriptyline hyperalgesic at day 14
- Potentiation of amitriptyline antiallodynic effect ([2]; mefloquine 0.1, 0.33, 1 mg/kg i.p. with amitriptyline 6 mg/kg, 25 days): significantly potentiated amitriptyline 6 mg/kg
- Antiallodynic effect of combination ([2]; mefloquine 0.1 and 0.33 mg/kg with amitriptyline 6 mg/kg): antiallodynic effect similar to amitriptyline 12 mg/kg
- Swimming time (mice subjected to FST): able to potentiate amitriptyline 12 mg/kg
- HC activity (ethidium bromide uptake) after LPS-induced opening (Cx43 hemichannels): reversed this effect
- Degree of Cx43 hemichannel inhibition, MFA compared with mefloquine (Cx43 hemichannels): less efficient
- Concentrations in blood and brain tissue ([3]; amitriptyline 6, 12 mg/kg, mefloquine 0.1, 0.3, 1 mg/kg i.p., 18 days, 2 hours after injection): dose-dependent
- Effect on concentrations of amitriptyline in blood and brain ([3]; even for the highest doses of mefloquine): does not induce an increase
- Mefloquine concentrations in plasma and brain at optimal in vivo potentiation ([3]; mice, FIG. 12): micromolar scale
- Potentiation of amitriptyline anti-hyperalgesic effect [4]: significantly improved the anti-hyperalgesic effect of amitriptyline

Compound: O=C(O)c1cc(C(F)(F)F)nc2c(C(F)(F)F)cccc12 [2,8-bistrifluoromethyl-4-quinoline carboxylic acid]
- Time to maximum plasma concentrations ([5]; in vivo): 2 weeks
- Maximum plasma concentrations, higher than those of mefloquine ([5]; relative to mefloquine): about 50%

Compound: Cc1ccc(Cl)c(Nc2ccccc2C(=O)O)c1Cl [MFA, meclofenamic acid]
- Potentiation of amitriptyline anti-hyperalgesic effect [1]: did not present any improved effect of amitriptyline
- Synergy with amitriptyline in vivo [2]: not observed
- HC activity (ethidium bromide uptake) after LPS-induced opening (Cx43 hemichannels): reversed this effect
- Degree of Cx43 hemichannel inhibition, MFA compared with mefloquine (Cx43 hemichannels): presented a higher inhibitor effect

Compound: O=C(O)c1cccnc1Nc1cccc(C(F)(F)F)c1 [niflumic acid]
- Synergy with amitriptyline in vivo [2]: not observed

Compound: hydroxymefloquine
- Presence as metabolite ([5]; in vivo): minute quantities only
